The NIST ThermoML archive (doi:10.1021/je400803f)
Numbers after ± are expanded uncertainties.

Settings: 101.33 kPa, Liquid, Vibrating tube method

SMILES | mass density (293.15 K) | mass density (298.15 K) | mass density (303.15 K) | mass density (308.15 K) | mass density (313.15 K) | mass density (318.15 K) | mass density (323.15 K)
CC(=O)N(C)C [N,N-dimethylethanamide] | 940.92 ± 0.23 kg/m3 | 936.3 ± 0.23 kg/m3 | 931.62 ± 0.23 kg/m3 | 926.89 ± 0.23 kg/m3 | 922.09 ± 0.23 kg/m3 | 917.23 ± 0.23 kg/m3 | 912.23 ± 0.23 kg/m3
CNC=O [N-methylformamide] | 1003.35 ± 0.23 kg/m3 | 998.91 ± 0.23 kg/m3 | 994.49 ± 0.23 kg/m3 | 990.01 ± 0.23 kg/m3 | 985.47 ± 0.23 kg/m3 | 980.88 ± 0.23 kg/m3 | 976.24 ± 0.23 kg/m3
CN(C)C=O [dimethylformamide] | 948.72 ± 0.23 kg/m3 | 943.86 ± 0.23 kg/m3 | 939 ± 0.23 kg/m3 | 934.08 ± 0.23 kg/m3 | 929.13 ± 0.23 kg/m3 | 924.06 ± 0.23 kg/m3 | 918.96 ± 0.23 kg/m3

More lines, now with the values ahead:

mass density (293.15 K) | mass density (298.15 K) | mass density (303.15 K) | mass density (308.15 K) | mass density (313.15 K) | mass density (318.15 K) | mass density (323.15 K) | SMILES
879.05 ± 0.23 kg/m3 | 875.12 ± 0.23 kg/m3 | 871.17 ± 0.23 kg/m3 | 867.15 ± 0.23 kg/m3 | 863.11 ± 0.23 kg/m3 | 859.01 ± 0.23 kg/m3 | 854.82 ± 0.23 kg/m3 | CCCCN(C=O)CCCC [N,N-dibutylformamide]
951.59 ± 0.07 kg/m3 | 947.48 ± 0.07 kg/m3 | 943.29 ± 0.07 kg/m3 | 939.04 ± 0.07 kg/m3 | 934.78 ± 0.07 kg/m3 | 930.45 ± 0.07 kg/m3 | 926.06 ± 0.08 kg/m3 | CCNC=O [N-ethylformamide]
1588.56 ± 0.76 kg/m3 | 1583.15 ± 0.76 kg/m3 | 1577.67 ± 0.75 kg/m3 | 1572.16 ± 0.75 kg/m3 | 1566.62 ± 0.74 kg/m3 | 1561.06 ± 0.74 kg/m3 | 1555.48 ± 0.73 kg/m3 | CCCC[N+]1(C)CCCC1.FC(F)(F)C(F)(F)[P-](F)(F)(F)(C(F)(F)C(F)(F)F)C(F)(F)C(F)(F)F
